Measurements as given in ChEMBL document CHEMBL3351728, “3-alkoxy-pyrrolo[1,2-b]pyrazolines as selective androgen receptor modulators with ideal physicochemical properties for transdermal administration” (J Med Chem, 2014).
≈ marks a conversion by molar mass, not a printed value. Calls of active or inactive are those of the source. The calls are words filed in the database; no cut-off is given here.

What was measured:
[1] = molecular target: T1, Androgen receptor (Homo sapiens) (UniProt P10275); assay: Agonist activity at human androgen receptor expressed in mouse C2C12 cells by androgen-specific response element-driven luciferase reporter gene assay relative to DHT; format: cell-based
T1 sequence (whole entry): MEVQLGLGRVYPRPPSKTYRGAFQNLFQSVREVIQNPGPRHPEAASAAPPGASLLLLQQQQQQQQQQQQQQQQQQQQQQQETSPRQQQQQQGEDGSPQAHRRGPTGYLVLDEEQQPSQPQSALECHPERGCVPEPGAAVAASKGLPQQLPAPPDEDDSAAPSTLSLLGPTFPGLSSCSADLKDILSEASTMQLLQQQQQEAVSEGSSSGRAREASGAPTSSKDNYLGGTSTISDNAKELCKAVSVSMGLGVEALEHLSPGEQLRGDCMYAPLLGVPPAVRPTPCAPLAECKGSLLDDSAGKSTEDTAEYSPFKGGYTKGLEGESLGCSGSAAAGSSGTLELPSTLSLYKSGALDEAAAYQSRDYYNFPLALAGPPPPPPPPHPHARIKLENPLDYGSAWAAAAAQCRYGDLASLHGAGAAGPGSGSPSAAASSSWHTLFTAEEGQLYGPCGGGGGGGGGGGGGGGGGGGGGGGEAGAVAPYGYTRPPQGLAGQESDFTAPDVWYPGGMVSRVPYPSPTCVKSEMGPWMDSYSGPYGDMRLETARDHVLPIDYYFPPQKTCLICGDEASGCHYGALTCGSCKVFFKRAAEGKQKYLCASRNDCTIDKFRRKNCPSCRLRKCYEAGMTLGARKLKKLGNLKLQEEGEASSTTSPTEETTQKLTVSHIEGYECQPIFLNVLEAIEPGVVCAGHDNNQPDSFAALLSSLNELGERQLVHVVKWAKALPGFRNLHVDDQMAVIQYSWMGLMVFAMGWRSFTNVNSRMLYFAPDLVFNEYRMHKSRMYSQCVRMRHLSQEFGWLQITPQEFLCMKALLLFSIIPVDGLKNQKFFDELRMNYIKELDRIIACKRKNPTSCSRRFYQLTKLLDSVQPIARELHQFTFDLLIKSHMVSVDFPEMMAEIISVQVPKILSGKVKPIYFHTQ

[2] = Lipophilicity, logP of the compound; format: physicochemical; settings: octanol/water
Zone of skin = assay: Skin permeability in human cadaver skin in Franz diffusion cell system; format: ADME
[3] = Thermodynamic solubility of the compound at pH 7.4; format: physicochemical; settings: buffer, read-out: Therm_solubility
[4] = Skin drug retention by silicone and isopropyl myristate (70:30) containing artificial membranes based skin PAMPA method
[5] = Skin permeability by silicone and isopropyl myristate (70:30) containing artificial membranes based skin PAMPA method; format: ADME
Androgen receptor [6] = molecular target: T2, Androgen receptor (Homo sapiens, UniProt P10275); settings: c2c12
T2 sequence (P10275 whole entry): T1 sequence (whole entry)

Androgen receptor [7] = molecular target: T2, Androgen receptor
Rattus norvegicus [8] = assay: Androgenic activity in orchidectomized rat assessed as stimulation of prostate weight treated subcutaneously once daily for 14 days by Hershberger assay; format: organism-based; settings: Prostate gland, sc, 336 h
Rattus norvegicus [9] = assay: Anabolic activity in orchidectomized rat assessed as stimulation of bulbocavernosus/levator ani muscle weight treated subcutaneously once daily for 14 days by Hershberger assay; format: functional; settings: sc, 336 h

Row | SMILES | Emax [1] | Jss (Zone of skin) | solubility thermodynamic [3] | EC50 (Androgen receptor [7]) | also measured
1 | COCCO[C@@H]1C(c2ccc(C#N)c(Cl)c2C)=NN2CC[C@H](O)[C@@H]12 | 82% | 1.1 ug/cm2.hr | 2300 µg/mL (≈ 6570 µM) |  | logP [2]: 2
2 | C[C@]12CC[C@H]3[C@@H](CCC4=CC(=O)CC[C@@]43C)[C@@H]1CC[C@@H]2O [TESTOSTERONE] |  | 0.19 ug/cm2.hr | 40 µg/mL (≈ 139 µM) |  | Drug uptake [4]: inactive; permeability [5]: permeable
3 | CO[C@@H]1C(c2ccc(C#N)c(Cl)c2C)=NN2C[C@@H](O)C[C@@H]12 | inactive |  |  |  | EC50 (Androgen receptor [6]): Not Active
4 | CO[C@@H]1C(c2ccc(C#N)c(Cl)c2C)=NN2C[C@@H](F)C[C@@H]12 | 86% |  |  | 1.4 nM | 
5 | CCC(=O)O[C@H]1CC[C@H]2[C@@H]3CCC4=CC(=O)CC[C@]4(C)[C@H]3CC[C@]12C [TESTOSTERONE PROPIONATE] |  |  |  |  | ED50 (Rattus norvegicus [8]): 0.31 mg/kg; ED50 (Rattus norvegicus [9]): 0.29 mg/kg
6 | Cc1c(C2=NN3CC[C@H](O)[C@H]3[C@@H]2O)ccc(C#N)c1Cl | 55% |  |  | 978 nM | 
7 | CO[C@@H]1C(c2ccc(C#N)c(Cl)c2C)=NN2C[C@H](O)C[C@@H]12 | 75% |  |  | 9.7 nM | 
8 | CCO[C@@H]1C(c2ccc(C#N)c(Cl)c2C)=NN2CC[C@H](O)[C@@H]12 | 98.3% | 0.9 ug/cm2.hr | 250 µg/mL (≈ 782 µM) | 1 nM | Drug uptake [4]: inactive; permeability [5]: permeable; logP [2]: 2.4
